What was measured:
BMRPA1 cells = assay: NNK exposure of BMRPA1 cells, morphology; format: cell-based, rat; settings: one 16 hour exposure
Protocol: NNK Exposures: All preparations of the carcinogen-containing media were made in a separate laboratory within a NCI-designed and certified chemical hood using prescribed protective measures. NNK (American Health Foundation, N.Y.) was prepared as a stock solution of 10 mg NNK in PBS and added to FBS-free cRPMI to make final concentrations of 100, 50, 10, 5, and 1 μg/ml. BMRPA1 cells at passage 36 (p36) were seeded at 10^5/60 mm TCDs and allowed to grow for 6 d. At this time the medium was removed, and the cells were washed 2× with prewarmed (37° C.), FBS-free cRPMI before they were treated with FBS-free cRPMI (4 ml/TCD) containing the different concentrations of NNK. A 6th set of TCDs containing BMRPA1 cells was incubated in FBS-free cRPMI without NNK and was used as controls. The eight TCDs used for each of the six sets of different culture conditions were returned to the 37° C. and 95% air-5% CO2 incubator. After 16 h, the NNK-containing medium was removed from all TCDs and the cells were washed 3× with PBS followed by addition of fresh cRPMI-10% FBS (4 ml/TCD), and the incubation continued. Control cultures without NNK were processed in parallel. The cells were fed every 2 d by replacing ½ of the spent medium with fresh cRPMI-10% FBS. At full confluency the cells were collected from all TCDs, the cells in each group were pooled, and passaged at 2×10^4 into fresh TCDs.

Protocol for BMRPA1 antigens: Immunosubtractive Hyperimmunization Protocol (ISHIP): A mixture of live (10^6) and paraformaldehyde fixed and washed (10^6) cells was used for each immunization intraperitoneally (ip). Six female Balb/c mice (age˜12 wks) (Harlan-Sprague Dawley Labs, St. Louis) were used: two mice were injected 4× during standard immunizations with BMRPA1 cells. […] The other two immunosuppressed mice were injected weekly three more times with transformed BMRPA1.NNK cells, and a week later the mice were hyperimmunized with 5 additional injections of transformed BMRPA1.NNK cells in the 10 days preceding fusion (ISHIP mice). Sera were obtained from all mice within a week after the indicated number of immunizations.
Cell-Enzyme ImmunoAssay (Cell-EIA): BMRPA1 and BMRPA1.NNK cells were seeded in TCPs (96-wells) at 3×10^4/well with 0.1 mL cRPMI-10% FBS. The cells were allowed to adhere for 24 h, air dried, and stored under vacuum at RT. The cells were then rehydrated with PBS-1% BSA, followed by addition of either hybridoma supernatants or two fold serial dilutions of mouse sera to each well for 45 min at room temperature (RT). After washing with PBS-BSA, HRP-GαMIgG (1:100 in PBS-1% BSA) was added to each well for 45 min at RT. […] The substrate color development was assessed at OD490nm with a microplate reader (Bio-Rad 3550). […]

SMILES | Phenotypical changes of neoplastic transformation (BMRPA1 cells; 1 μg/ml NNK) | Cytotoxic changes (BMRPA1 cells; 5 and 1 μg NNK/mL) | Appearance of phenotypical changes indicative of neoplastic transformation (BMRPA1 cells; 100, 50, 10 μg NNK/ml) | Cytotoxic changes (BMRPA1 cells; larger concentrations of NNK (100, 50, 10 μg NNK/mL), serum free medium) | Immunosuppression of antibody titer to BMRPA1 cells (Cell-EIA with sera) (BMRPA1 antigens; 3 injections of BMRPA1 cells, then cyclophosphamide i.p. for 5 days, 60 μg/day/g body weight) | Staining of rat pancreatic tissue by sera of BMRPA1 immunized, cyclophosphamide-treated mice (BMRPA1 antigens; immunohistochemistry on rat pancreas)
CN(CCCC(=O)c1cccnc1)N=O [NNK, 4-(methyl-nitrosamino)-1-(3-pyridyl)-1 butanone] | phenotypical changes characteristic of neoplastic transformation but at a slower rate, over several weeks | observed considerably less | within a week | cytotoxic changes consisting of poorly attached, degenerating, dying cells, and slowed cell growth |  | 
O=P1(N(CCCl)CCCl)NCCCO1 (stereo not drawn) [cyclophosphamide] |  |  |  |  | strong immunosuppression | virtually no staining

Reference: patent publication US20070036809A1, “Tolerance-induced targeted antibody production” (priority 2003, published 2007)
